From paper PMC8170132, “Kinetics of Abacavir-Induced Remodelling of the Major Histocompatibility Complex Class I Peptide Repertoire” (Frontiers in Immunology, 2021)

What was measured:
HLA-B*57:01 [1] = molecular target: T1, HLA-B*57:01 (Homo sapiens, UniProt P01889, D201E/D98Y/E176V/E187L/E204Q/E69M/E70A/G107R/I90N/K202T/L105A/L119I/N104I/N87E/Q89R/Q94S/R106L/R155S/R180L/R86G/S101N/S121V/S35A/S48A/T118I/V36M/Y140S/Y91M); assay: LC-MRM-MS quantitation of HLA ligands and co-purified abacavir from abacavir treated C1R.B*57:01 cells; format: cell-based; settings: for Abacavir dependence: LC-MRM-MS detection, classification of the peptide based on abacavir dependency; for Linear regression slope: linear regression of LC-MRM-MS peptide abundance over abacavir treatment time; for Category of abacavir impact on peptide abundance in the immunopeptidome: C1R.B*57:01, 35 µM abacavir 0-16 h or constant, linear regression of normalised abundance, three replicates
HLA-B*57:01 [2] = molecular target: T1, HLA-B*57:01; design: method as in Illing et al., Nature 2012; settings: ref Illing et al., Nature 2012, cited from earlier work; for HLA-B*57:01 previous observation by LC-MS/MS, Abacavir treated: abacavir treated cells; for HLA-B*57:01 previous observation by LC-MS/MS, Untreated: untreated cells

## KTFIGTVRV
HLA-B*57:01 [1]
  Abacavir dependence: Dependent
  Linear regression slope: 0.0503
HLA-B*57:01 [2]
  HLA-B*57:01 previous observation by LC-MS/MS, Abacavir treated: + (+ (< 5% FDR))

## VTTDIQVKV
HLA-B*57:01 [1]
  Abacavir dependence: Dependent
  Linear regression slope: 0.0428
HLA-B*57:01 [2]
  HLA-B*57:01 previous observation by LC-MS/MS, Abacavir treated: + (+ (< 5% FDR))
  HLA-B*57:01 previous observation by LC-MS/MS, Untreated: + (+ (< 5% FDR))

## LSSDINVRSW
HLA-B*57:01 [1]
  Abacavir dependence: Minimal
  Linear regression slope: -0.0197
HLA-B*57:01 [2]
  HLA-B*57:01 previous observation by LC-MS/MS, Abacavir treated: + (+ (< 5% FDR))
  HLA-B*57:01 previous observation by LC-MS/MS, Untreated: + (+ (< 5% FDR))

## ASAGNLKPVW
HLA-B*57:01 [1]
  Abacavir dependence: Minimal
  Linear regression slope: 0.0136
HLA-B*57:01 [2]
  HLA-B*57:01 previous observation by LC-MS/MS, Abacavir treated: + (+ (< 5% FDR))
  HLA-B*57:01 previous observation by LC-MS/MS, Untreated: + (+ (< 5% FDR))

## TFDDIVHSF
HLA-B*57:01 [1]
  Linear regression slope: 0.0142
HLA-B*57:01 [2]
  HLA-B*57:01 previous observation by LC-MS/MS, Abacavir treated: + (+ (< 5% FDR))
  HLA-B*57:01 previous observation by LC-MS/MS, Untreated: + (+ (< 5% FDR))

## KSIFVFTHV
HLA-B*57:01 [1]
  Abacavir dependence: Dependent
  Linear regression slope: 0.0498
HLA-B*57:01 [2]
  HLA-B*57:01 previous observation by LC-MS/MS, Abacavir treated: + (+ (< 5% FDR))

## RVDPDVAQHW
HLA-B*57:01 [1]
  Abacavir dependence: Minimal
  Linear regression slope: 0.0110
HLA-B*57:01 [2]
  HLA-B*57:01 previous observation by LC-MS/MS, Abacavir treated: + (+ (< 5% FDR))
  HLA-B*57:01 previous observation by LC-MS/MS, Untreated: + (+ (< 5% FDR))

## KTIETSPSL [HLA-B*57:01 ligand]
HLA-B*57:01 [1]
  Category of abacavir impact on peptide abundance in the immunopeptidome: abacavir facilitated (abacavir facilitated (slope > 0.02, abundance > 0 at t = 0 in at least two of three replicates))
HLA-B*57:01 [2]
  HLA-B*57:01 previous observation by LC-MS/MS, Abacavir treated: # (# (> 5% FDR))

## ASSSQIIHI
HLA-B*57:01 [1]
  Abacavir dependence: Dependent
  Linear regression slope: 0.0446
HLA-B*57:01 [2]
  HLA-B*57:01 previous observation by LC-MS/MS, Abacavir treated: + (+ (< 5% FDR))

## HTIQIRQDW [HLA-B*57:01 ligand]
HLA-B*57:01 [1]
  Category of abacavir impact on peptide abundance in the immunopeptidome: Facilitated
  Abacavir dependence: Facilitated
  Linear regression slope: 0.0256
HLA-B*57:01 [2]
  HLA-B*57:01 previous observation by LC-MS/MS, Abacavir treated: + (+ (< 5% FDR))
  HLA-B*57:01 previous observation by LC-MS/MS, Untreated: + (+ (< 5% FDR))

## NTVELRVKI [non-labelled HLA-B*57:01 ligand]
HLA-B*57:01 [1]
  Category of abacavir impact on peptide abundance in the immunopeptidome: Dependent
  Abacavir dependence: Dependent
  Linear regression slope: 0.0281
HLA-B*57:01 [2]
  HLA-B*57:01 previous observation by LC-MS/MS, Abacavir treated: + (+ (< 5% FDR))

## KIADFGWSV
HLA-B*57:01 [1]
  Abacavir dependence: Dependent
  Linear regression slope: 0.0283
HLA-B*57:01 [2]
  HLA-B*57:01 previous observation by LC-MS/MS, Abacavir treated: + (+ (< 5% FDR))

## KVFKLQTSL [non-labelled HLA-B*57:01 ligand]
HLA-B*57:01 [1]
  Category of abacavir impact on peptide abundance in the immunopeptidome: Dependent
  Abacavir dependence: Dependent
  Linear regression slope: 0.0380
HLA-B*57:01 [2]
  HLA-B*57:01 previous observation by LC-MS/MS, Abacavir treated: # (# (> 5% FDR))

## KTAGYPNVNI
HLA-B*57:01 [1]
  Abacavir dependence: Dependent
  Linear regression slope: 0.0509
HLA-B*57:01 [2]
  HLA-B*57:01 previous observation by LC-MS/MS, Abacavir treated: + (+ (< 5% FDR))
  HLA-B*57:01 previous observation by LC-MS/MS, Untreated: # (# (> 5% FDR))

## MTAGVDGHSW
HLA-B*57:01 [1]
  Abacavir dependence: Minimal
  Linear regression slope: -0.0056
HLA-B*57:01 [2]
  HLA-B*57:01 previous observation by LC-MS/MS, Abacavir treated: + (+ (< 5% FDR))
  HLA-B*57:01 previous observation by LC-MS/MS, Untreated: + (+ (< 5% FDR))

## SAAYLPRMW
HLA-B*57:01 [1]
  Abacavir dependence: Minimal
  Linear regression slope: -0.0194
HLA-B*57:01 [2]
  HLA-B*57:01 previous observation by LC-MS/MS, Abacavir treated: + (+ (< 5% FDR))
  HLA-B*57:01 previous observation by LC-MS/MS, Untreated: + (+ (< 5% FDR))

## KAIDYIRFL
HLA-B*57:01 [1]
  Abacavir dependence: Inhibited
  Linear regression slope: -0.0293
HLA-B*57:01 [2]
  HLA-B*57:01 previous observation by LC-MS/MS, Abacavir treated: + (+ (< 5% FDR))
  HLA-B*57:01 previous observation by LC-MS/MS, Untreated: # (# (> 5% FDR))

## RTLLEDGTFKV
HLA-B*57:01 [1]
  Abacavir dependence: Dependent
  Linear regression slope: 0.0443
HLA-B*57:01 [2]
  HLA-B*57:01 previous observation by LC-MS/MS, Abacavir treated: + (+ (< 5% FDR))

## LSQEQLRQW
HLA-B*57:01 [1]
  Abacavir dependence: Minimal
  Linear regression slope: 0.0083
HLA-B*57:01 [2]
  HLA-B*57:01 previous observation by LC-MS/MS, Abacavir treated: + (+ (< 5% FDR))
  HLA-B*57:01 previous observation by LC-MS/MS, Untreated: + (+ (< 5% FDR))

## KTIKLWNTL [HLA-B*57:01 ligand derived from RACK1]
HLA-B*57:01 [1]
  Category of abacavir impact on peptide abundance in the immunopeptidome: abacavir facilitated (abacavir facilitated (slope > 0.02, abundance > 0 at t = 0 in at least two of three replicates))
  Abacavir dependence: Facilitated
  Linear regression slope: 0.0224
HLA-B*57:01 [2]
  HLA-B*57:01 previous observation by LC-MS/MS, Abacavir treated: + (+ (< 5% FDR))
  HLA-B*57:01 previous observation by LC-MS/MS, Untreated: + (+ (< 5% FDR))

## LSKPNPPSL [HLA-B*57:01 ligand]
HLA-B*57:01 [1]
  Category of abacavir impact on peptide abundance in the immunopeptidome: Minimal
  Abacavir dependence: Minimal
  Linear regression slope: -0.0172
HLA-B*57:01 [2]
  HLA-B*57:01 previous observation by LC-MS/MS, Abacavir treated: + (+ (< 5% FDR))
  HLA-B*57:01 previous observation by LC-MS/MS, Untreated: + (+ (< 5% FDR))

## LTTKLTNTNI [non-labelled HLA-B*57:01 ligand]
HLA-B*57:01 [1]
  Category of abacavir impact on peptide abundance in the immunopeptidome: Dependent
  Abacavir dependence: Dependent
  Linear regression slope: 0.0544
HLA-B*57:01 [2]
  HLA-B*57:01 previous observation by LC-MS/MS, Abacavir treated: + (+ (< 5% FDR))

## HSTDRVVLI
HLA-B*57:01 [1]
  Abacavir dependence: Dependent
  Linear regression slope: 0.0350
HLA-B*57:01 [2]
  HLA-B*57:01 previous observation by LC-MS/MS, Abacavir treated: # (# (> 5% FDR))

## LSSPVTKSF
HLA-B*57:01 [1]
  Category of abacavir impact on peptide abundance in the immunopeptidome: minimally impacted by abacavir
  Abacavir dependence: Minimal
  Linear regression slope: 0.0147
HLA-B*57:01 [2]
  HLA-B*57:01 previous observation by LC-MS/MS, Abacavir treated: + (+ (< 5% FDR))
  HLA-B*57:01 previous observation by LC-MS/MS, Untreated: + (+ (< 5% FDR))

## YFDPANGKF
HLA-B*57:01 [1]
  Linear regression slope: 0.0159
HLA-B*57:01 [2]
  HLA-B*57:01 previous observation by LC-MS/MS, Abacavir treated: + (+ (< 5% FDR))
  HLA-B*57:01 previous observation by LC-MS/MS, Untreated: + (+ (< 5% FDR))

## IYDKFIAQL
HLA-B*57:01 [1]
  Linear regression slope: -0.0106
HLA-B*57:01 [2]
  HLA-B*57:01 previous observation by LC-MS/MS, Abacavir treated: + (+ (< 5% FDR))
  HLA-B*57:01 previous observation by LC-MS/MS, Untreated: + (+ (< 5% FDR))

## RVAQLEQVYI
HLA-B*57:01 [1]
  Abacavir dependence: Dependent
  Linear regression slope: 0.0208
HLA-B*57:01 [2]
  HLA-B*57:01 previous observation by LC-MS/MS, Abacavir treated: + (+ (< 5% FDR))

## ASAIIIQRW
HLA-B*57:01 [1]
  Abacavir dependence: Minimal
  Linear regression slope: 0.0134
HLA-B*57:01 [2]
  HLA-B*57:01 previous observation by LC-MS/MS, Abacavir treated: + (+ (< 5% FDR))
  HLA-B*57:01 previous observation by LC-MS/MS, Untreated: + (+ (< 5% FDR))

## STLHLVLRL
HLA-B*57:01 [1]
  Abacavir dependence: Dependent
  Linear regression slope: 0.0280
HLA-B*57:01 [2]
  HLA-B*57:01 previous observation by LC-MS/MS, Abacavir treated: + (+ (< 5% FDR))
  HLA-B*57:01 previous observation by LC-MS/MS, Untreated: + (+ (< 5% FDR))

## TALPLLKQF
HLA-B*57:01 [1]
  Abacavir dependence: Inhibited
  Linear regression slope: -0.0283
HLA-B*57:01 [2]
  HLA-B*57:01 previous observation by LC-MS/MS, Abacavir treated: + (+ (< 5% FDR))
  HLA-B*57:01 previous observation by LC-MS/MS, Untreated: + (+ (< 5% FDR))

## TSLKSRVTI [non-labelled HLA-B*57:01 ligand]
HLA-B*57:01 [1]
  Category of abacavir impact on peptide abundance in the immunopeptidome: Facilitated
  Abacavir dependence: Facilitated
  Linear regression slope: 0.0267
HLA-B*57:01 [2]
  HLA-B*57:01 previous observation by LC-MS/MS, Abacavir treated: # (# (> 5% FDR))
  HLA-B*57:01 previous observation by LC-MS/MS, Untreated: + (+ (< 5% FDR))

## VSVKDIQAHL
HLA-B*57:01 [1]
  Abacavir dependence: Dependent
  Linear regression slope: 0.0241
HLA-B*57:01 [2]
  HLA-B*57:01 previous observation by LC-MS/MS, Abacavir treated: + (+ (< 5% FDR))

## VTHSVRIGF
HLA-B*57:01 [1]
  Abacavir dependence: Inhibited
  Linear regression slope: -0.0410
HLA-B*57:01 [2]
  HLA-B*57:01 previous observation by LC-MS/MS, Abacavir treated: + (+ (< 5% FDR))
  HLA-B*57:01 previous observation by LC-MS/MS, Untreated: + (+ (< 5% FDR))
